From paper PMC6176321, “Efficient Synthesis of Glutamate Peptide-Estradiol Conjugate for Imaging Estrogen Receptor-Positive Diseases” (BioMed Research International, 2018)
Ends that are not written are not given here.

Key:
[1] = test system: MCF7 (ER+) breast cancer cells; experiment: In vitro cellular uptake assay (sensitivity); assay type: cell-based; conditions: 50,000 cells/well, 4 uCi/80uL/well, 4ug/well, average of three measurements
Description: (§1) In vitro cellular uptake studies of ^68Ga-GAP-EDL in breast tumor cells were performed. Breast cancer cell lines with high (MCF7; ER+) and low (SK-BR-3; ER-) estrogen receptor densities were used to determine the sensitivity and specificity for the cellular uptake assay. Briefly, for sensitivity assay, breast tumor cells (50,000 cells/well, 12 wells) were added with ^68GaCl3, ^68Ga-GAP, and ^68Ga-GAP-EDL (4 uCi/80uL/well, 4ug/well). The cells were incubated for 0.5-2 hrs. […] After incubation, the supernatant was collected. The cells were washed twice with ice cold PBS (1 ml) and trypsin EDTA (0.1 ml). After 2 min, the cells were collected. The wells were washed twice with cold PBS (0.5ml). The total volume of cell supernatant and the total volume containing cells were transferred to test tube to count the activity separately. Each piece of data represents an average of three measurements. Percentage of uptake (%)=cell activity/(cell supernatant+ cell activity)∗100% was calculated.

[2] = test system: SK-BR-3 (ER-) breast cancer cells; experiment: In vitro cellular uptake assay (sensitivity); assay type: cell-based; conditions: 50,000 cells/well, 4 uCi/80uL/well, 4ug/well, average of three measurements
Description: as §1

[3] = Micro-PET/CT imaging, tumor-to-muscle count density ratio; parameters: species or system mice; conditions: mouse, in vivo, 0.14 mg per 100uCi (0.2 mL) per mouse, 0.14mg per 100μCi, iv, n=2 per compound
Description: For PET imaging studies, athymic nude mice (n=2 per compound) inoculated with MCF-7 cells (s.c. 10^6 cells/mouse) at the left hind legs. When tumor reached 0.7cm, the tumor-bearing mice were anesthetized with 2% isoflurane on prone position. ^68Ga chloride (5mCi) was obtained by eluting a ^68Ge/^68Ga generator (20mCi size from Eckert Ziegler, Germany) with HCL (0.1N, 1.5 mL). Labeling GAP (1 mg) and GAP-EDL (1mg) was achieved by dissolving both compounds in sodium acetate (0.4 mL, 0.1N, pH 5.4), followed by adding ^68Ga chloride (1mCi, 0.3mL). Both compounds were sat at 37°C for 20 min. For animal imaging studies, the concentrations were diluted to 1.5mL/mg by adding saline (0.9%). Each mouse was administered with ^68Ga-GAP and ^68Ga-GAP-EDL (0.14mg per 100μCi, 0.2 mL, iv). ^68Ga-GAP and ^68Ga-GAP-EDL imaging studies were performed with a Siemens Inveon micro-PET/CT scanner (Siemens Medical Systems, Hoffman Estates, IL). Three serial 30-minute trans-axial PET images were obtained. All corrections for attenuation, scatter, and dead time were applied to generate quantifiable images. Regions of interests were then drawn on the tumor tissue and muscle regions and time activity curves were generated, the counts per pixel were used to determine tumor tissue-to-muscle tissue count density ratios.

Row | Compound | Percentage of uptake ([1]; MCF-7, 30min incubation) [%] | Percentage of uptake ([1]; MCF-7, 1h incubation) [%] | Percentage of uptake ([1]; MCF-7, 2h incubation) [%] | Percentage of uptake ([2]; SK-BR-3, 30min incubation) [%] | Percentage of uptake ([2]; SK-BR-3, 1h incubation) [%] | Percentage of uptake ([2]; SK-BR-3, 2h incubation) [%] | tissue to tissue ratio at 0.5 h ([3]; 30 min) | tissue to tissue ratio at 1 h ([3]; 60 min) | tissue to tissue ratio at 1.5 h ([3]; 90 min)
1 | EEEEEE [^68Ga-GAP, metal not drawn] | 2.20±0.73 | 3.20±1.17 | 2.43±0.71 | 1.84±0.27 | 3.11±1.29 | 2.45±0.21 | 1.1 ± 0.02 | 1.2 ± 0.01 | 1.2 ± 0.02
2 | [Cl][68Ga]([Cl])[Cl] [^68GaCl3] | 1.35±0.35 | 1.79±0.28 | 1.63±0.33 | 1.74±0.21 | 1.80±0.20 | 2.21±0.11 |  |  | 
